Test [1] concerns MDCK. In words: Inhibition of phospholipase C in dog MDCK cells assessed as change in basal intracellular calcium level in presence of U73122. It is filed as cell-based. As to conditions: Canis lupus familiaris. Background: Calcium flux is commonly read through the fluorescence of an indicator in the cells.
The subject of test [2] is MDCK. As to the kind of experiment: Inhibition of drug-induced intracellular calcium level in dog MDCK cells at 20 uM in absence of extracellular calcium. It is filed as functional, Canis lupus familiaris. More on the design: scale not given: the % may be the effect or the level left.
Test [3] relates to MDCK. As to the kind of experiment: Increase in drug-induced intracellular calcium level in dog MDCK cells in presence of extracellular calcium. Conditions: Canis lupus familiaris. It is filed as functional, cell-based.
Test [4] concerns MDCK. As to the kind of experiment: Increase in drug-induced intracellular calcium level in dog MDCK cells at 0.1 uM. It is filed as functional, cell-based. As to conditions: Canis lupus familiaris.
Test [5] has as its system MDCK. In words: Increase in drug-induced intracellular calcium level in dog MDCK cells at 10 uM after 250 seconds. It is filed as functional, Canis lupus familiaris.
The test system of test [6] is MDCK. As to the kind of experiment: Inhibition of protein kinase C in dog MDCK cells assessed as change in intracellular calcium level in presence of GF109203 X. Conditions: Canis lupus familiaris. It is filed as cell-based.
Test [7] relates to MDCK. In words: Activation of protein kinase C in dog MDCK cells assessed as change in intracellular calcium level in presence of phorbol myristate acetate. It is filed as cell-based. As to conditions: Canis lupus familiaris.
The subject of test [8] is MDCK. In words: Elevation of drug-induced intracellular calcium level in MDCK cells at 1 uM. It is filed as functional, Canis lupus familiaris.

Our source for the Activity values is ChEMBL document CHEMBL1144739, “[6]-gingerol induces Ca2+ mobilization in Madin-Darby canine kidney cells” (2008).

The source made the active and inactive calls. The calls are words filed in the database; no cut-off is given here.

Regarding `CCCCC[C@H](O)CC(=O)CCc1ccc(O)c(OC)c1` [GINGEROL], the outcome with MDCK [1] and in the test with MDCK [4] was inactive. Also, the results for the Activity with MDCK [2], with MDCK [3] and with MDCK [5] were 78%, “Dose-dependent effect” and 295 nM, respectively. Also, the result in the test with MDCK [6] and with MDCK [7] was Active.

As to `C/C=C(/C)C(=O)O[C@H]1C(C)=C2[C@H]([C@@H]1OC(=O)CCCCCCC)[C@@](C)(OC(C)=O)C[C@H](OC(=O)CCC)[C@@]1(O)[C@H]2OC(=O)[C@@]1(C)O` [THAPSIGARGIN], in the test with MDCK [8], the Activity amounted to 216 nM.
